Measurements: patent publication US20240002437A1, “COMPOSITIONS AND METHODS OF TREATING INFLAMMATORY LUNG DISEASES” (priority 2020, published 2024)
Entries after “also recorded” stand apart in the source; their conditions may differ.

Tests used:
TRPV4 [1] = test: Cytosolic Ca2+ concentration ([Ca2+]cyt), fura-2/AM loaded PAEC; assay type: cell-based, ovine; conditions: 4αPDD 10 μM
Experimental: (§1) Primary cultures of ovine pulmonary arterial endothelial cells (PAEC) were isolated as described previously (L. K. Kelly, Am J Physiol Lung Cell Mol Physiol, 286(5), L984-91 (2004)). Briefly, cells were maintained in Dulbecco's modified Eagle medium (DMEM) supplemented with 10% fetal calf serum (Hyclone, Logan, UT), antibiotics/antimycotic (500 IU Penicillin, 500 μg/ml Streptomycin, 1.25 μg/ml Amphotericin B; MediaTech, Herndon, VA) at 37° C. in a humidified atmosphere with 5% CO2 and 95% air. Cells were used for experiments between passages 9-14, seeded at ˜50% confluence, and utilized when fully confluent.
PAEC were grown at 50-60% confluence on 25-mm-diameter circular glass coverslips. […] The fluorescence emission (at 520 nm) was captured with an EM-CC camera (Evolve; Photometric, Tucson, AZ) and analyzed using NIS Elements 3.2 software (Nikon). [Ca^2+]cyt is expressed as 340/380 fluorescence ratio within an area of interest in the peripheral area of a cell recorded every 2 s. […] [Ca^2+]cyt was calculated using the following equation: [Ca^2+]cyt=Kd×(Sf2/Sf1)×(R−Rmin)/(Rmax−R). Kd (225 nM) is the dissociation constant of the Ca2+-fura-2 complex; and Sf2 and Sf1 and Rmin and Rmax were calculated using a standard protocol (G. Grynkiewicz, J Biol Chem, 260(6), 3440-50 (1985)). […]

PAEC [2] = test: Mitochondrial ROS levels (MitoSOX Red) in PAEC; assay type: cell-based, ovine; conditions: 4αPDD 10 μM, 3 h
Experimental: as §1
MitoSOX™ Red (Molecular Probes), a fluorogenic dye for selective detection of ROS levels in the mitochondria of live cells was used. Briefly, cells were washed with fresh media, and then incubated in media containing MitoSOX Red (2 μM), for 30 min at 37° C. in dark conditions then subjected to fluorescence microscopy at an excitation of 510 nm and an emission at 580 nm. An Olympus IX51 microscope equipped with a CCD camera (Hamamatsu Photonics) was used for acquisition of fluorescent images. The average fluorescent intensities (to correct for differences in cell number) were quantified using ImagePro Plus version 5.0 imaging software (Media Cybernetics, Rockville, MD).

TRPV4 [3] = conditions: literature (Alvarez, Circ Res 2006); cited from earlier work
PAEC [4] = test: Cellular peroxynitrite levels (DHR 123 oxidation) in PAEC; assay type: cell-based, ovine; conditions: 4αPDD
Experimental: as §1
The level of cell peroxynitrite was determined by the oxidation of dihydrorhodamine (DHR) 123 (EMD Millipore, Billerica, MA) to rhodamine 123, as previously described (S. Aggarwal, J Cell Physiol, 226(12), 3104-13 (2011)). Briefly, cultured PAEC were treated with or without TGF-β1 (5 ng/ml, 8 h) or GW9662 (5 μM, 24 h). The cells were collected and the cell pellet was then treated with PEG-Catalase (100 U, 30 min) to reduce H2O2 dependent DHR 123 oxidation. DHR 123 (5 μM, 30 min) was added to the cell pellet in phenol red-free media and the fluorescence of rhodamine 123 measured using a Fluoroskan Ascent Microplate Fluorometer with excitation at 485 nm and emission at 545 nm. Fluorescent values were normalized to the protein levels in each sample.

CCCCCCCCCC(=O)O[C@@H]1[C@@H](C)[C@@]2(O)[C@@H](C=C(CO)C[C@@]3(O)C(=O)C(C)=C[C@@H]23)[C@@H]2C(C)(C)[C@]12OC(=O)CCCCCCCCC [4αPDD, 4α-Phorbol-12,13 didecanoate]
cytosolic free Ca2+ concentration ([Ca2+]cyt) (TRPV4 [1]): transient increase of [Ca^2+]cyt; also recorded: induced a transient increase
mitochondrial ROS levels (MitoSOX red fluorescence) (PAEC [2]): increases in mitochondrial ROS levels
lung injury on 4αPDD exposure (TRPV4 [3]): leads to Ca^2+ entry-dependent acute lung injury, disruption of the lung barrier, and alveolar flooding
cellular peroxynitrite levels (PAEC [4]): increases
